Data reported in patent publication US20170001956A1, “HYDROCARBYL CARBOXYBETAINE AND METHOD FOR PREVENTING HOFMANN ELIMINATION IN ALKALINE ENVIRONMENT” (NATIONAL CHUNG CHENG UNIVERSITY, priority 2015, published 2017).

Tested on: Staphylococcus aureus
Conditions: treated with 1M NaOH; compared to CB treated with 1M NaOH (CB-NaOH); FIG. 7

## CC(C[N+](C)(C)CCSSCC[N+](C)(C)CC(C)C(=O)O)C(=O)O (stereo not drawn) [α-mCB, carboxy-alpha-methyl-betaine disulfide]
  adsorption resistance against the biofouling of S. aureus: better adsorption resistance
